Assay results as given in patent US20090324691A1, “METHODS AND OPHTHALMIC DEVICES USED IN THE TREATMENT OF OCULAR ALLERGIES” (priority 2008, published 2009).
Counter-ions that a name gives are not always drawn.

Assays:
[1] = Uptake of ketotifen fumarate to an ophthalmic device over time (FIG. 1); type: physicochemical; settings: 3.0 mL of 43 ug/mL ketotifen fumarate packing solution per lens
Description: FIG. 1 illustrates the uptake of ketotifen fumarate to an ophthalmic device over time.
Three lots of 1-Day Acuvue® Brand Contact Lenses (etafilcon A) were cured and hydrated with deionized water. These lenses were inserted into glass vials containing 3.0 mL of a 43 ug/mL ketotifen fumarate packing solution per lens (packing solution formulation: borate buffered saline containing 0.83% sodium chloride, 0.9% boric acid, 100 ug/mL of dicalcium DTPA, and 0.1% sodium borate decahydrate ). The soaked and harvested at 5, 15, 30, 90 and 180 minutes and extracted and assayed as in Example 1 to determine the amount of ketotifen per treated lens. This graph illustrates that a minimum effective amount of in an etafilcon A contact lens is attained within 15 minutes of treatment.

[2] = concentrations higher than 0.025% (0.25 mg/mL), topical solution; cited from earlier work

CN1CCC(=C2c3ccccc3CC(=O)c3sccc32)CC1 [ketotifen fumarate]
time of treatment to attain a minimum effective amount in an etafilcon A contact lens [1]: ≤ 15 min
ocular tolerability of higher concentrations [2]: sting and burn upon initial administration to the eye
